Laboratory results reported in ChEMBL document CHEMBL3137667, “[Drug-induced liver injury; fourteenth updated edition of the bibliographic database of liver injuries and related drugs]” (Gastroenterol Clin Biol, 2004).

Key:
[1] = human
[2] = human; remark: listed apart in the source
[3] = human, serum, 4383 h
[4] = human, serum
[5] = human; remark: listed apart in the source
[6] = Highest frequency of acute liver toxicity observed during clinical trials, expressed as a percentage. [column '% AIGUE' in source]; conditions: human
[7] = human; remark: listed apart in the source
[8] = Proposed mechanism(s) of liver damage. [column 'MEC' in source]; conditions: human
[9] = Comments (NB not yet translated). [column 'COMMENTAIRES' in source]; conditions: human
[10] = human; remark: listed apart in the source
[11] = human; remark: listed apart in the source
[12] = human; remark: listed apart in the source
[13] = human, serum; remark: listed apart in the source
[14] = human; remark: listed apart in the source
[15] = Times to onset, minimal and maximal, observed in the indexed observations. [column 'DELAI' in source]; conditions: human
[16] = human; remark: listed apart in the source
[17] = human; remark: listed apart in the source
[18] = Highest frequency of moderate liver toxicity observed during clinical trials, expressed as a percentage. [column '% BIOL' in source]; conditions: human
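For Hepatotoxicity (association with vascular disease) in this document: count of indexed literature references reporting vascular liver injury in humans, e.g. peliosis hepatitis, hepatic veno-occlusive disease or Budd-Chiari syndrome.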
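For Hepatotoxicity (benign tumour) in this document: value is a count of indexed literature references citing a benign tumour confirmed by histopathology.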
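For Hepatotoxicity (choleostasis) in this document: human cholestatic liver injury, shown by histopathology or by peak ALT or AST elevation over alkaline phosphatase ratio below 2, value counts indexed literature reports.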
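For Hepatotoxicity (chronic liver disease) in this document: chronic liver injury confirmed by histopathology or persistently raised serum aminotransferase activity beyond 6 months, value given as the count of indexed literature references.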
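For Hepatotoxicity (cirrhosis) in this document: value is a count of indexed literature references reporting cirrhosis confirmed by histopathology.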
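For Hepatotoxicity (cytolytic) in this document: human cytolytic liver injury, shown by histopathology or by a ratio above 5 of peak ALT or AST elevation to alkaline phosphatase elevation, value counts indexed references.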
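For Hepatotoxicity (granulomatous hepatitis) in this document: value is a count of indexed literature references reporting granulomatous liver disease confirmed by histopathology.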
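For Hepatotoxicity (malignant tumour) in this document: malignant tumour confirmed by histopathology, value gives the count of indexed literature references reporting it.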
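For Hepatotoxicity (severe hepatitis) in this document: human clinical data: severe hepatitis, meaning potentially life-threatening liver failure or clinically observed cases, the value counts how many indexed literature references report it.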
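For Hepatotoxicity (steatosis) in this document: steatosis confirmed by histopathology, value is the count of indexed references.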

| SMILES | Hepatotoxicity (cirrhosis) [1] | Hepatotoxicity (association with vascular disease) [2] | Hepatotoxicity (chronic liver disease) [3] | Hepatotoxicity (moderate) [4] | Hepatotoxicity (animal toxicity known) [5] | Hepatotoxicity (acute) [6] [%] | Hepatotoxicity (choleostasis) [7] | Hepatotoxicity (mechanism) [8] | Hepatotoxicity (comment) [9] | Hepatotoxicity (steatosis) [10] | Hepatotoxicity (malignant tumour) [11] | Hepatotoxicity (cytolytic) [12] | Hepatotoxicity (acute) [13] | Hepatotoxicity (granulomatous hepatitis) [14] | Hepatotoxicity (time to onset) [15] | Hepatotoxicity (benign tumour) [16] | Hepatotoxicity (severe hepatitis) [17] | Hepatotoxicity (moderate) [18] [%] | other results |
| --- | --- | --- | --- | --- | --- | --- | --- | --- | --- | --- | --- | --- | --- | --- | --- | --- | --- | --- | --- |
| CC1(C)S[C@@H]2[C@H](NC(=O)Cc3ccccc3)C(=O)N2[C@H]1C(=O)O [PENICILLIN G] | 0 | 0 | 1 | 9 | yes | 0 | 9 | Allergic | CHOLESTASE_PROLONGEE CHOLANGITE AC_ANTI-N | 0 | 0 | 5 | 17 | 3 | 0.5 hour - 18 days | 0 | 1 | 13.2 |  |
| CC(=O)Oc1ccccc1C(=O)O [ASPIRIN] | 1 | 0 | 5 | 30 | yes | 0 | 2 | Dose-dependant, Reactive metabolite | #S.REYE | 0 | 0 | 26 | 31 | 3 | 1 week - 5 years | 0 | 6 | 66 |  |
| O=c1[nH]cc(F)c(=O)[nH]1 [FLUOROURACIL] | 1 | 1 | 0 | 15 | yes | 25 | 1 | Dose-dependant, Toxic Metabolite | CHOLANGITE/IAH I/LEVAMISOLE | 4 | 0 | 2 | 4 | 0 | 1 month - 1 year | 0 | 2 | 61.2 |  |
| CC1=C(/C=C/C(C)=C/C=C/C(C)=C/CO)C(C)(C)CCC1 [RETINOL] | 22 | 10 | 26 | 8 | yes |  |  |  | I/ALCOOL | 22 | 0 |  | 0 |  | 11 days - 17.5 years | 0 |  |  | Hepatotoxicity (acute) ([6]; Liver): 0%; Hepatotoxicity (choleostasis) ([7]; Liver): 0; Hepatotoxicity (mechanism) ([8]; Liver): Dose-dependant; Hepatotoxicity (cytolytic) ([12]; Liver): 0; Hepatotoxicity (granulomatous hepatitis) ([14]; Liver): 0; Hepatotoxicity (severe hepatitis) ([17]; Liver): 1; Hepatotoxicity (moderate) ([18]; Liver): 33% |
| CC(=O)N[C@H]1[C@@H](O[C@H]2[C@H](O)[C@@H](O)[C@H](O[C@H]3[C@H](CS(=O)(=O)O)[C@@H](OS(=O)(=O)O)[C@@H](O[C@H]4[C@H](O)[C@@H](OS(=O)(=O)O)C(O)O[C@H]4C(=O)O)O[C@@H]3O)O[C@@H]2C(=O)O)O[C@H](COS(=O)(=O)O)[C@@H](O)[C@@H]1O (stereo partly specified) [SODIUM HEPARIN] | 0 | 0 | 0 | 20 | yes | 0 | 1 | Dose-dependant | RUPTURE_HEPATIQUE | 0 | 0 | 3 | 4 | 0 | 2 days - 2 weeks | 0 | 1 | 90 |  |
| C=COCC(F)(F)F [FLUROXENE] | 0 | 0 | 0 | 2 | yes | 0 | 0 | Toxic Metabolite | I/PHENOBARBITAL/PHENYTOINE | 0 | 0 | 3 | 4 | 0 | 1 day - 5 days | 0 | 2 | 30.4 |  |
| CN(C)CCCN1c2ccccc2CCc2ccc(Cl)cc21 [CLOMIPRAMINE] | 0 | 0 | 0 | 11 | yes | 0 | 2 | Allergic | RC/AMINEPTINE | 0 | 0 | 3 | 6 | 0 | 1 week - 4 years | 0 | 0 | 10.7 |  |
